Data as given in US20240366571A1, “MODULATORS OF SK4 POTASSIUM CHANNEL AND USES THEREOF” (Ramot at Tel-Aviv University Ltd., priority 2022, published 2024).
“Also recorded” adds a separate entry of the source.

Assays:
human SK4 [1] = biological target: T1, human SK4 (Homo sapiens, UniProt O15554); assay: Whole-cell patch-clamp of WT SK4 K+ currents in transfected CHO cells; assay type: cell-based; settings: WT SK4 currents in absence and presence of 20 μM compound
T1 construct: expressed in transfected cells; host or cells: CHO cells
Experimental: Constructs: For CHO cell transfection, the following were cloned: human SK1, rat SK2, human SK3, and rat calmodulin into the pcDNA3 vector, human SK4 into pEGFP-C1 vector, and PIP4,5-kinase into an IRES-dsRed plasmid. The mutations were introduced using the PCR-based QuikChange™ site-directed mutagenesis (Stratagene®) and were verified by full sequencing of the entire plasmid vector.
Cell Culture and Transfection: Chinese hamster ovary (CHO) cells were grown in Dulbecco's modified Eagle's medium supplemented with 2 millimolar (mM) glutamine, 10% fetal calf serum, and antibiotics. In brief, 40,000 cells seeded on poly-L-lysine-coated glass coverslips (13 millimeter (mm) in diameter) in a 24-multiwell plate were transfected with 0.5 microgram (μg) pEGFP-SK4/0.5 μg mutant SK4, 1.2 μg dsRed-PIP4,5-kinase or with 1 μg SK1/SK2/SK3 together with pIRES-CD8 (0.3 μg) as a marker for transfection. Transfection was performed using TransIT-LT1 Transfection Reagent (Mirus Bio) according to the manufacturer's protocol. For electrophysiology, transfected cells were visualized approximately 40 hours after transfection with a Zeiss Axiovert 35 inverted florescence microscope.
Whole-cell patch-clamp recording: Voltage-clamp recordings were performed using the whole-cell configuration of the patch-clamp technique. Signals were amplified using an […] patch-clamp amplifier (Molecular Devices), sampled at 5 kHz and filtered at 2.4 kHz via a four pole Bessel low pass filter. Data were acquired using pClamp™ 10.5 software in conjunction with an Axon™ DigiData® 1440A interface (Molecular Devices). The patch pipettes were pulled from borosilicate glass (Harvard Apparatus) with a resistance of 3-5 megaohms (MΩ). The intracellular pipette solution contained 130 mM KCl, 5 mM EGTA, 10 mM HEPES, pH 7.3 (adjusted with KOH), and CaCl2 calculated for a final concentration of 1 μM free-Ca^2+, by MAXCHELATOR (WEBMAXC STANDARD) software, with sucrose added to adjust osmolarity to 290 mosM. The external solution (310 mosM) contained 140 mM NaCl, 4 mM KCl, 1.8 mM CaCl2, 1.2 mM MgCl2, 11 mM glucose, and 5.5 mM HEPES adjusted with NaOH to pH 7.3. CHO cells were held at −90 millivolt (mV) and SK4 K^+ currents were activated using a voltage ramp protocol from −100 mV to +60 mV for 150 milliseconds. Electrophysiological data analysis was performed using the Clampfit program (pClamp™ 10.5; Molecular Devices).
Some of the compounds were tested by comparing trace of WT SK4 channel currents in the absence and presence of 20 μM of the tested compound.

human SK4 [2] = biological target: T1, human SK4; assay: as above; assay type: cell-based; settings: 10 μM
WT SK4 channels = biological target: T2, WT SK4 channels (Homo sapiens, UniProt O15554); assay: Inside-out macro-patch recording of WT SK4 channels in transfected CHO cells; assay type: cell-based; settings: 1 μM free-Ca2+
T2 construct: expressed in transfected cells; host or cells: CHO cells
Experimental: Inside-out macro-patch recording: To measure the Ca^2+ concentration dependence for SK4 channel activation, CHO cells were co-transfected with plasmids encoding WT SK4 (1 μg) and WT CaM (1 μg) using the Lipofectamine reagent at a ratio of 1:2. The cells were transfected 48 hours prior to recordings. The patch pipettes were pulled and fire-polished with a MF-900 micro-forge (Narashige) to reach an internal diameter of […]. The resistance of the patch electrodes ranged from 2-3 MΩ. The pipette solution contained 135 mM KCl, 1 mM MgSO4, 0.91 mM CaCl2, and 10 mM HEPES at pH 7.3. The bath solution contained 135 mM KCl, 5 mM EGTA, and 10 mM HEPES at pH 7.3. EGTA was used to titer the different Ca^2+ concentration solutions, calculated using the software by C. Patton of Stanford University (http://maxchelator(dot)stanford(dot)edu/). Currents were recorded by 10 repetitive 1 second duration voltage ramps from −100 mV to +100 mV from a holding potential of 0 mV. The current amplitudes in response to increasing Ca^2+ concentrations were normalized to those obtained at a saturating Ca^2+ concentration (3 μM). Furthermore, to determine the Ca^2+ concentration dependence for activation in the presence of a tested compound, such as the exemplary compound BA6b9 (10 μM), the current amplitudes were normalized to those obtained at large maximal Ca^2+ concentration of 10 μM. For PIP2-dependent activation, PIP2 affinity to the SK4 channel was also examined in the inside-out configuration. The dose-response curve for PIP2 was measured with increasing concentrations of diC8-PIP2 in the presence of 1 μM Ca^2+. The diC8-PIP2 effect on the channel current was measured after complete depletion of the native PIP2 using sonicated poly-L-lysine (PLL) 50 μg/ml and a subsequent 2-minute washout. […] Apparent EC50 values for Ca^2+ or diC8-PIP2 were determined by fitting the data points to a standard dose-response curve Y=100/(1+10^(log EC(50)−X)*HillSlope).
The calcium dependence of the human SK4 K^+ channel in transfected CHO cells was characterized using inside-out macro-patches. The expressed currents were recorded in response to voltage ramps (−100 millivolt (mV) to +100 mV for 1 seconds) and by increasing the free-Ca^2+ concentrations applied to the internal face of the membrane. […]
To examine whether PIP2 is involved in the modulation of the SK4 channel, channel trafficking to the plasma membrane was increased by co-transfecting CHO cells with plasmid DNAs encoding for the channel and for wild type (WT) CaM. The resulting currents were recorded from inside-out macro-patches, where the intracellular solution contained a saturating concentration of 1 μM free-Ca^2+, as shown in FIG. 1B (see, black plot).

[3] = tested on: isolated guinea pig hearts; assay: Langendorff perfused isolated guinea pig hearts; settings: 10 μM
Experimental: (§1) Animals: Adult male Sprague-Dawley rats (n=56, 200-250 grams) and Guinea pigs (n=19, 400-700 grams) obtained from Envigo Laboratories (Jerusalem, Israel) were bred and grown in Ben-Gurion University of the Negev, Israel. Experiments in rats and guinea pigs were approved by the institutional ethics committee of Ben-Gurion University of the Negev, Israel (Protocol No. IL-24-05-2020(D) and were carried out in strict accordance with the Guide for the Care and Use of Laboratory Animals of the National Institutes of Health. The animals were kept under standardized conditions: 12:12 light: dark cycles at 20-24° C. and 30-70% relative humidity.
(§2) Perfused isolated hearts—Langendorff method: The isolated heart experiment setup was performed as described in Etzion et al., Am J Physiol Heart Circ Physiol (2008) 295, H1460-1469; and Mor et al., J Pharmacol Exp Ther (2013) 344, 59-67.]. Briefly, each animal was anesthetized with 2% isoflurane and an intraperitoneal (IP) injection of pentobarbital (60 mg/kg), followed by IP injection of Heparin (1000 U/kg). The heart was rapidly excised and placed into ice-cold Tyrode's buffer solution (consisted of 140 mM NaCl, 5.4 mM KCl, 0.5 mM MgCl2, 2.5 mM CaCl2, 0.39 mM NaH2PO4, 10 mM HEPES and 11 mM glucose, and titrated to pH 7.4 with NaOH). The aorta was cannulated and connected to a pre-heated (37° C.) and oxygenated perfusion system with Tyrode's solution while perfusion pressure was maintained at about 70 mmHg throughout the experiment. Prior to the experiment, the heart was left in Tyrode's solution to stabilize for 20 minutes for hemodynamic measurements, the left atrial appendage was excised, and a collapsed latex balloon was inserted into the left ventricle (LV) through the mitral valve. Once positioned, the balloon was filled with double distilled water reaching an end-diastolic pressure of 10-15 mmHg. Coronary perfusion pressure and LV pressure were recorded by a pressure amplifier (ETH-256C amplifier and B-100 probes, iWorx, NH, USA). Electrophysiological signals were recorded from the high right atrium (HRA) via a miniature quadripolar hook electrode (for simultaneous pacing and recording) and from the LV via a bipolar hook electrode. Electrical signals were filtered (1-2 kHz) and recorded by two voltage amplifiers (Model 3000, A-M Systems, Carlsberg, WA, USA). Signals were interfaced with a PC using an A/D converter (PCI-6024E, National Instruments, Austin TX, USA) and a custom-designed program developed with LabVIEW programing language (National Instruments, Austin, TX, USA) to control signal acquisition, data saving and off-line analysis. Measured physiological parameters during the experiment included perfusion flow (ml/minute) as a marker for coronary perfusion pressure, LV developed pressure, dP/dt±(representing the rate of rise of left ventricular pressure during isovolumetric contraction as a marker for LV contractility), heart rate, PR, and RR intervals. Tram-34 and BA6b9 were applied for a 20-minutes incubation period and physiological parameters were recorded.
(§3) Effective refractory period measurements: Using both custom-made quadripolar electrode inserted on the HRA and two bipolar electrodes (recording and pacing) on the LV, allowed measurement of the effective refractory period (ERP) at the atrial level (atrial effective refractory period, AERP), atrioventricular level (AVERP), and ventricular level (VERP). For ERP measurement, a programmed S1S2 stimulation protocol was performed using double diastolic threshold intensity. The protocol consisted of ten S1-S2 intervals of 150 milliseconds (ms) followed by an S1-S2 interval that was reduced by 1 ms each time, until pacing capture failed three consecutive times. AERP, AVERP, and VERP were measured and recorded prior and after exposure to the used inhibitor, either Tram-34 or BA6b9.

isolated rat hearts = assay: Langendorff perfused isolated rat hearts: electrophysiology and hemodynamics; settings: 10 μM
Experimental: as §1, §2, §3

WT SK2 channels = WT SK2 channels (Rattus norvegicus, UniProt P70604); settings: Zhang et al., Nat Chem Biol (2014); cited from earlier work

O=c1[nH]c2cc(Cl)c(Cl)cc2[nH]1 [BA40, 5,6-dichloro-1,3-dihydro-2H-benzo[d]imidazol-2-one]
SK4 K+ channel modulating activity (human SK4 [1]): activated; also recorded: activation; also recorded: Activator | activation (increase) of WT SK4 current (human SK4 [2]): 42% | activation of SK4 channel (fold) (human SK4 [2]; representative trace): about 1.4 fold

O=c1[nH]c2ccc(Br)cc2[nH]1 [BA100, 5-bromo-1,3-dihydro-2H-benzo[d]imidazol-2-one]
SK4 K+ channel modulating activity (human SK4 [1]): activated; also recorded: activation; also recorded: Activator | activation (increase) of WT SK4 current (human SK4 [2]): 28%

poly-L-lysine hydrochloride [PLL, reference compound]
decrease (inhibition) of SK4 current (WT SK4 channels; 50 μg/ml internal application, 1 minute): 68%

Clc1ccccc1C(c1ccccc1)(c1ccccc1)n1cccn1 [Tram-34, 1-[(2-chlorophenyl)diphenylmethyl]-1H-pyrazole, reference compound]
AERP (effect) [3]: significantly prolonged | AVERP (effect) [3]: significantly prolonged | action potential activation current (atrial and ventricular pacing thresholds) [3]: Neither Tram-34 nor BA6b9 affected | coronary flow (perfusion flow velocity) [3]: no effect | coronary flow (perfusion flow velocity) (isolated rat hearts): significantly lowered | left ventricular filling pressure (developed pressure) (isolated rat hearts): did not affect | maximal pressure change in left ventricular contractility (dP/dt max) (isolated rat hearts): reduces both parameters | minimal pressure change in left ventricular contractility (dP/dt min) (isolated rat hearts): reduces both parameters

CCCCCCCC(=O)OC[C@H](COP(=O)(O)O[C@@H]1[C@H](O)[C@H](O)[C@@H](OP(=O)(O)O)[C@H](OP(=O)(O)O)[C@H]1O)OC(=O)CCCCCCC [diC8-PIP2, dioctanoyl, phosphatidylinositol 4,5 bisphosphate, reference compound]
EC50 (WT SK2 channels): 1900 nM | EC50 (WT SK4 channels; internal application after PIP2 depletion by PLL, read-out: EC50 of activation of WT SK4 channels): 154 nM
